The text below walks through data of patent publication EP0900211B1 (PHARMACIA & UPJOHN COMPANY, priority 1996, dated 1997).

Chain of Stromelysin (P08254 100-477): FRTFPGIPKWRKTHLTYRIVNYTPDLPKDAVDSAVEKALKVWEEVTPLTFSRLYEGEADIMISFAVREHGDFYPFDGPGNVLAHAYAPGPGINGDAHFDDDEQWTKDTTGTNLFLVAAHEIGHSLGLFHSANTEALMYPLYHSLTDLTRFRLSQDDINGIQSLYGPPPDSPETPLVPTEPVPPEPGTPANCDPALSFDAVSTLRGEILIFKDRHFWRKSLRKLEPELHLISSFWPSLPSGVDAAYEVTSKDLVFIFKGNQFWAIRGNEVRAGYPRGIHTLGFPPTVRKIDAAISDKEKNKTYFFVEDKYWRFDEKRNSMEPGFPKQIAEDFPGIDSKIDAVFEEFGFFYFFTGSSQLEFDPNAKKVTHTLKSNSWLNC

The assay concerns the target Stromelysin (Homo sapiens, UniProt P08254). In words: MMP inhibition, particle concentration fluorescence assay. It is filed as biochemical. The settings on record: in vitro; fluorescein/biotin substrate; MMP buffer pH 7.5; room temperature.
Experimental: Inhibitory activity is evaluated in one or more of the MMP enzymes (stromelysin, gelatinase, and collagenase) in vitro using particle concentration fluorescence assay. An inhibitor binds to MMP enzymes which prevents the degradation of a substrate by stromelysin, gelatinase, or collagenase. The substrate has attached to it a fluorescein and a biotin moiety. The intact substrate then binds to an avidin-coated particle via the biotin moiety. Once the particle is washed and dried, a fluorescent signal is generated since the fluorescent group is attached to the particle. Without an inhibitor present, the substrate is degraded by MMP enzymes and the fluorescein group is removed, therefore, no fluorescent signal can be detected. Testing compounds are dissolved in DMSO to the desired concentration, then the solutions are diluted to 1:5 with MMP buffer (50 mM Tris-HCl, pH 7.5; 150 mM NaCl; 0.02% NaN3). Serial two-fold dilutions of each compound are prepared. A concentrated, activated enzyme solution is transferred into each plate of the testing compounds, and the mixture is incubated at room temperature for 15 minutes. […] At this point, the substrate mixture is mixed with 0.1% avidin-coated polystyrene particles. After 15 minutes, the fluorescence values are measured following filtration and washing of the beads. Ki values are then calculated.
What is called Ki is the equilibrium dissociation constant of an inhibitor or competing ligand from its target. A high value points to a looser hold on the target. Compound `O=C(Nc1n[nH]c(=S)s1)N[C@@H](CC1CCCCC1)C(=O)NCCc1ccccc1` [Example 62, α-[[[(4,5-Dihydro-5-thioxo-1,3,4-thiadiazol-2-yl)amino]carbonyl]amino]-N-(2-phenylethyl)-(S)-cyclohexanepropanamide] had a Ki of 0.65 µM.

For the compound `COC(=O)[C@H](COCc1ccccc1)NC(=O)Nc1n[nH]c(=S)s1` [Example 63, N-[[(4,5-Dihydro-5-thioxo-1,3,4-thiadiazol-2-yl)amino]carbonyl]-O-(phenylmethyl)-L-serine methyl ester], the affinity, expressed as Ki, was 2.39 µM.

The compound `COC(=O)[C@@H](NC(=O)Nc1n[nH]c(=S)s1)[C@@H](C)OCc1ccccc1` [Example 64, N-[[(4,5-Dihydro-5-thioxo-1,3,4-thiadiazol-2-yl)amino]carbonyl]-O-(phenylmethyl)-L-threonine methyl ester] displayed a Ki of 9.56 µM.

The compound `COC(=O)[C@H](CSCc1ccc(C)cc1)NC(=O)Nc1n[nH]c(=S)s1` [Example 65, N-[[(4,5-Dihydro-5-thioxo-1,3,4-thiadiazol-2-yl)amino]carbonyl]-S-[(4-methylphenyl)methyl]-L-cysteine methyl ester] showed a Ki of 2.55 µM.

Compound `COC(=O)[C@H](CSCc1ccc(OC)cc1)NC(=O)Nc1n[nH]c(=S)s1` [Example 68, N-[[(4,5-Dihydro-5-thioxo-1,3,4-thiadiazol-2-yl)amino]carbonyl]-S-[(4-methoxyphenyl)methyl]-L-cysteine methyl ester] returned an inhibition constant Ki of 2.05 µM.

Compound `CNC(=O)[C@H](CSCc1ccc(C)cc1)NC(=O)Nc1n[nH]c(=S)s1` [Example 70, 2-[[[(4,5-Dihydro-5-thioxo-1,3,4-thiadiazol-2-yl)amino]-carbonyl]amino]-N-methyl-3-[[(4-methylphenyl)methyl]thio]-(R)-propanamide] returned a Ki of 1.2 µM.

`COC(=O)[C@H](CSCc1ccccc1)NC(=O)Nc1n[nH]c(=S)s1` [Example 71, N-[[(4,5-Dihydro-5-thioxo-1,3,4-thiadiazol-2-yl)amino]carbonyl]-S-(phenylmethyl)-L-cysteine methyl ester] had a Ki of 2.51 µM.

Turning to `CNC(=O)[C@H](CSCc1ccccc1)NC(=O)Nc1n[nH]c(=S)s1` [Example 72, 2-[[[(4,5-Dihydro-5-thioxo-1,3,4-thiadiazol-2-yl)amino]carbonyl]-amino]-N-methyl-3-[(phenylmethyl)thio]-(R)-propanamide], the affinity corresponds to a Ki of 1.05 µM.

Take `CNC(=O)[C@H](COC(C)(C)C)NC(=O)Nc1n[nH]c(=S)s1` [Example 73, 2-[[[(4,5-Dihydro-5-thioxo-1,3,4-thiadiazol-2-yl)amino]carbonyl]-amino]-3-(1,1-dimethylethoxy)-N-methyl-(S)-propanamide]: the Ki amounted to 1.6 µM.

Turning to `COC(=O)[C@@H](NC(=O)Nc1n[nH]c(=S)s1)[C@@H](C)OC(C)(C)C` [Example 74], the Ki was 1.87 µM.

The compound `COC(=O)[C@H](Cc1ccc(-c2ccccc2)cc1)NC(=O)Nc1n[nH]c(=S)s1` [Example 78, α-[[[(4,5-Dihydro-5-thioxo-1,3,4-thiadiazol-2-yl)amino]carbonyl]amino]-(S)-(1,1'-biphenyl)-4-propanoic acid methyl ester] showed an inhibition constant (Ki) of 3.02 µM.

The compound `CNC(=O)[C@H](Cc1ccc(-c2ccccc2)cc1)NC(=O)Nc1n[nH]c(=S)s1` [Example 79, α-[[[(4,5-Dihydro-5-thioxo-1,3,4-thiadiazol-2-yl)amino]carbonyl]amino]-N-methyl-(S)-(1,1'-biphenyl)-4-propanamide] came in with a Ki of 7.39 µM.

In turn, `COC(=O)[C@H](Cc1ccc(C(C)(C)C)cc1)NC(=O)Nc1n[nH]c(=S)s1` [Example 80, N-[[(4,5-Dihydro-5-thioxo-1,3,4-thiadiazol-2-yl)amino]carbonyl]-4-(1,1-dimethylethyl)-L-phenylalanine methyl ester] returned a Ki of 0.8 µM.

In the case of `CNC(=O)[C@H](Cc1ccc(C(C)(C)C)cc1)NC(=O)Nc1n[nH]c(=S)s1` [Example 81, α-[[[(4,5-dihydro-5-thioxo-1,3,4-thiadiazol-2-yl)amino]carbonyl]amino]-4-(1,1-dimethylethyl)-N-methyl-(S)-benzenepropanamide], the Ki is 1.82 µM.
